The record followed here is patent US8883799B2, “Tricyclic PI3K inhibitor compounds and methods of use” (Genentech, Inc., priority 2010, dated 2014).

A value given as a limit tells only on which side of the number the result lay.

The term EC50 denotes the concentration at which the effect is half-maximal. Usually IC50 stands for the concentration needed to halve the response being measured.

T1 sequence (P42336 whole entry): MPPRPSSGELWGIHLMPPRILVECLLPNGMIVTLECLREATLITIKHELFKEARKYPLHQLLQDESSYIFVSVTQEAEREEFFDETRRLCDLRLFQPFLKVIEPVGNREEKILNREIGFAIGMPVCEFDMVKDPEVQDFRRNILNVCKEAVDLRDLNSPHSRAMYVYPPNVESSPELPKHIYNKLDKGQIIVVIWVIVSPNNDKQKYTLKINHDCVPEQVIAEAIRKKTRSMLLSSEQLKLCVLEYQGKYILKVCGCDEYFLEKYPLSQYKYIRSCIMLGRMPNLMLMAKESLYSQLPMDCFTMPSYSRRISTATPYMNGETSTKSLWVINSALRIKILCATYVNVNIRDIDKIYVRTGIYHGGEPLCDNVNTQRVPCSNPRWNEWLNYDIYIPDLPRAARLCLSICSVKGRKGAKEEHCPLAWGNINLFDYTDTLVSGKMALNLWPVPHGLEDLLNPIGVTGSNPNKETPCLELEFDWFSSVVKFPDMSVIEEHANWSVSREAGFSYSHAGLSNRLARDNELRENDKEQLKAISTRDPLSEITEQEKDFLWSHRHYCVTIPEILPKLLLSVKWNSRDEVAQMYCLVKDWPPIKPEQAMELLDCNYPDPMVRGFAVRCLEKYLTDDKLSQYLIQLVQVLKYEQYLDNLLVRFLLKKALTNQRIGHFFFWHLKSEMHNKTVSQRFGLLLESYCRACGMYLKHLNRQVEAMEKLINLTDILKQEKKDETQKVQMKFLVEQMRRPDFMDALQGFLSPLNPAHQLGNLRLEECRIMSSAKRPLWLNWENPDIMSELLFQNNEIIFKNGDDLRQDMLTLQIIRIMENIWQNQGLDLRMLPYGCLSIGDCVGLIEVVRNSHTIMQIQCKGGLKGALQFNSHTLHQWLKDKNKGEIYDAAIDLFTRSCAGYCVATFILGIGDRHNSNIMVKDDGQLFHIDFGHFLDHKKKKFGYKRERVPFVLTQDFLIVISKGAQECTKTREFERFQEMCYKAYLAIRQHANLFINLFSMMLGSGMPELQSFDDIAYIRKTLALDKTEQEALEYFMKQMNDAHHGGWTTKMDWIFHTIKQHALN
T1 sequence (P27986 whole entry partner): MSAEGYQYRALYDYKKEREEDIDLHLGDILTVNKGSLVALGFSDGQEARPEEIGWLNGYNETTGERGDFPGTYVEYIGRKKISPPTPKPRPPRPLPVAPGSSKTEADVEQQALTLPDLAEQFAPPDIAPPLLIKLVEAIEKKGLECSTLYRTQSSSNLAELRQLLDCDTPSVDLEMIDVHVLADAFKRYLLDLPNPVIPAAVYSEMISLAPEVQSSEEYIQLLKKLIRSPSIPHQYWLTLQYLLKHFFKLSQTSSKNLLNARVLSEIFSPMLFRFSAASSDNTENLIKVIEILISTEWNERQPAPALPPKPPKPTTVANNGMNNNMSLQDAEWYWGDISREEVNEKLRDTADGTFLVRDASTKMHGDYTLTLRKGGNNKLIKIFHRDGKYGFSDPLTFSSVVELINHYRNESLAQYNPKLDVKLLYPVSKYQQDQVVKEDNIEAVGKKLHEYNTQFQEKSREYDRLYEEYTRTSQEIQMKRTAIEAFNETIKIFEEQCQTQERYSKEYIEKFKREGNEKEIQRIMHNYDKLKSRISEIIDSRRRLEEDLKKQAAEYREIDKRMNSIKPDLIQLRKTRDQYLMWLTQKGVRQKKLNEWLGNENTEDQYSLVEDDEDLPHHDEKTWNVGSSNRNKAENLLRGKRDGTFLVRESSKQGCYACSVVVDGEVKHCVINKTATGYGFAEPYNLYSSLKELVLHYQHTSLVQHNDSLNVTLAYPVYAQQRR

The first assay deals with PC3. Briefly: In vitro cell proliferation assay (CellTiter-Glo), PC3. The following applies: Homo sapiens, PC-3; Cell line: PC3; Tissue type: prostate; Mutation Status: PTEN; read-out: EC50 (μmole). In kind it is cell-based. The procedure:
(§1) Efficacy of Formula I compounds was measured by a cell proliferation assay employing the following protocol (Promega Corp. Technical Bulletin TB288; Mendoza et al (2002) Cancer Res. 62:5485-5488):
(§2) 1. An aliquot of 100 μl of cell culture containing about 10^4 cells (PC3, Detroit562, or MDAMB361.1) in medium was deposited in each well of a 384-well, opaque-walled plate.
(§3) 2. Control wells were prepared containing medium and without cells.
(§4) 3. The compound was added to the experimental wells and incubated for 3-5 days.
(§5) 4. The plates were equilibrated to room temperature for approximately 30 minutes.
(§6) 5. A volume of CellTiter-Glo® Reagent equal to the volume of cell culture medium present in each well was added.
(§7) 6. The contents were mixed for 2 minutes on an orbital shaker to induce cell lysis.
(§8) 7. The plate was incubated at room temperature for 10 minutes to stabilize the luminescence signal.
(§9) 8. Luminescence was recorded and reported in graphs as RLU=relative luminescence units.
(§10) Alternatively, cells were seeded at optimal density in a 96 well plate and incubated for 4 days in the presence of test compound. Alamar Blue™ was subsequently added to the assay medium, and cells were incubated for 6 hr before reading at 544 nm excitation, 590 nm emission. EC50 values were calculated using a sigmoidal dose response curve fit. The term EC50 refers to the half maximal effective concentration and is the concentration at which a drug induces a response halfway between the baseline and maximum after some specified exposure time. It is commonly used as a measure of drug potency.
(§11) The anti-proliferative effects of Formula I exemplary compounds were measured by the CellTiter-Glo® Assay against various tumor cell lines, including the following: […]
In general terms: In ATP-based viability assays light output follows the ATP content of the culture.
As to `CCNC(=O)Nc1ccc(-c2nc(N3CCOCC3)c3c(n2)C2(C)CCOC2N3C)cc1` (stereo not drawn) [Compound 101, 1-[4-(3a,8-dimethyl-7-morpholin-4-yl-3,3a,8,8a-tetrahydro-2h-1-oxa-4,6,8-triaza-cyclopenta[a]inden-5-yl)-phenyl]-3-ethyl-urea], the EC50 amounted to 208 nM.

Another assay relates to MDA-MB-361.1. Briefly: In vitro cell proliferation assay (CellTiter-Glo), MDA-MB-361.1. Format: cell-based. As to conditions: Cell line: MDA-MB-361.1; Tissue type: breast; Mutation Status: PI3K; read-out: EC50 (μmole). The procedure: as §1, §2, §3, §4, §5, §6, §7, §8, §9, §10, §11
Take `CCNC(=O)Nc1ccc(-c2nc(N3CCOCC3)c3c(n2)C2(C)CCOC2N3C)cc1` (stereo not drawn) [Compound 101, 1-[4-(3a,8-dimethyl-7-morpholin-4-yl-3,3a,8,8a-tetrahydro-2h-1-oxa-4,6,8-triaza-cyclopenta[a]inden-5-yl)-phenyl]-3-ethyl-urea]: the EC50 came out at 315 nM.

A further assay addresses T1, p110 alpha PI3K (Homo sapiens, UniProt P42336).
T1 construct: purchased Upstate Cell Signaling Solutions, Charlottesville, Va
Briefly: p110α (alpha) PI3K binding assay (fluorescence polarization; alternatively radiometric). The following applies: read-out: IC50, Ki (μmole) PI3K, p110 alpha binding assay. As to the method: Binding Assays: Initial polarization experiments were performed on an Analyst HT® 96-384 (Molecular Devices Corp, Sunnyvale, Calif.). […] After an incubation time of 30 minutes at room temperature, the reactions were stopped by the addition of GRP-1 and PIP3-TAMRA probe (Echelon-Inc., Salt Lake City, Utah) 100 nM and 5 nM final concentrations respectively. Read with standard cut-off filters for the rhodamine fluorophore (λex=530 nm; λem=590 nm) in 384-well black low volume Proxiplates® (PerkinElmer, Wellesley, Mass.) Fluorescence polarization values were plotted as a function of the protein concentration, and the EC50 values were obtained by fitting the data to a 4-parameter equation using KaleidaGraph® software (Synergy software, Reading, Pa.). This experiment also establishes the appropriate protein concentration to use in subsequent competition experiments with inhibitors.
After an incubation time of 30 minutes at room temperature, the reactions were stopped by the addition of GRP-1 and PIP3-TAMRA probe (Echelon-Inc., Salt Lake City, Utah) 100 nM and 5 nM final concentrations respectively. Read with standard cut-off filters for the rhodamine fluorophore (λex=530 nm; λem=590 nm) in 384-well black low volume PROXIPLATES® (PerkinElmer, Wellesley, Mass.) Fluorescence polarization values were plotted as a function of the antagonist concentration, and the IC50 values were obtained by fitting the data to a 4-parameter equation in Assay Explorer® software (MDL, San Ramon, Calif.).
The Formula I compound was serially diluted in 100% DMSO. The kinase reaction was incubated for 1 hr at room temperature, and the reaction was terminated by the addition of PBS. IC50 values were subsequently determined using sigmoidal dose-response curve fit (variable slope).
On the technique in general: In fluorescence polarisation assays a small probe gives low polarisation when free and higher when bound to something large.
For `Cn1cc(-c2nc(N3CCOCC3)c3nc4n(c3n2)CCOC4(C)C)cn1` [Compound 127, 6,6-dimethyl-2-(1-methyl-1H-pyrazol-4-yl)-4-morpholino-8,9-dihydro-6H-[1,4]oxazino[3,4-e]purine], the IC50 is above 695 nM.
Still for that read-out and setting: to `CC1(C)OCCn2c1nc1c(N3CCOCC3)nc(-c3ccc4[nH]ncc4c3)nc12` [Compound 129, 2-(1H-indazol-5-yl)-6,6-dimethyl-4-morpholino-8,9-dihydro-6H-[1,4]oxazino[3,4-e]purine] belongs above 695 nM; to `CN1CCN(c2cc(-c3nc(N4CCOCC4)c4nc5n(c4n3)CCOC5(C)C)ccn2)CC1` [Compound 130, 6,6-dimethyl-2-(2-(4-methylpiperazin-1-yl)yridine-4-yl)-4-morpholino-8,9-dihydro-6H-[1,4]oxazino[3,4-e]purine], above 695 nM; to `CC1(C)OCCn2c1nc1c(N3CCOCC3)nc(-c3ccc(N4CCOCC4)nc3)nc12` [Compound 132, 6,6-dimethyl-4-morpholino-2-(6-morpholinopyridin-3-yl)-8,9-dihydro-6H-[1,4]oxazino[3,4-e]purine], above 695 nM.
Regarding `CC1(C)OCCn2c1nc1c(N3CCOCC3)nc(-c3cnn(Cc4ccccc4)c3)nc12` [Compound 133, 2-(1-benzyl-1H-pyrazol-4-yl)-6,6-dimethyl-4-morpholino-8,9-dihydro-6H-[1,4]oxazino[3,4-e]purine], the IC50 was above 695 nM.
`CC(C)Oc1ncccc1-c1nc(N2CCOCC2)c2nc3n(c2n1)CCOC3(C)C` [Compound 134, 2-(2-isopropoxypyridin-3-yl)-6,6-dimethyl-4-morpholino-8,9-dihydro-6H-[1,4]oxazino[3,4-e]purine]: the IC50 is above 695 nM.
On to `CC(=O)Nc1ccccc1-c1nc(N2CCOCC2)c2nc3n(c2n1)CCOC3(C)C` [Compound 135, N-(2-(6,6-dimethyl-4-morpholino-8,9-dihydro-6H-[1,4]oxazino[3,4-e]purin-2-yl)phenyl)acetamide], for which the IC50 is above 695 nM.
On the same count and under the same terms, then `Cc1n[nH]c(C)c1-c1nc(N2CCOCC2)c2nc3n(c2n1)CCOC3(C)C` [Compound 136, 2-(3,5-dimethyl-1H-pyrazol-4-yl)-6,6-dimethyl-4-morpholino-8,9-dihydro-6H-[1,4]oxazino[3,4-e]purine], with above 695 nM; and `CC1(C)OCCn2c1nc1c(N3CCOCC3)nc(-c3ccc(O)nc3)nc12` [Compound 137, 5-(6,6-dimethyl-4-morpholino-8,9-dihydro-6H-[1,4]oxazino[3,4-e]purin-2-yl)pyridine-2-ol], with above 695 nM; and `CCn1cc(-c2nc(N3CCOCC3)c3nc4n(c3n2)CCOC4(C)C)cn1` [Compound 141, 2-(1-ethyl-1H-pyrazol-4-yl)-6,6-dimethyl-4-morpholino-8,9-dihydro-6H-[1,4]oxazino[3,4-e]purine], with above 695 nM.
For `CN(C)C(=O)c1ccc(-c2nc(N3CCOCC3)c3nc4n(c3n2)CCOC4(C)C)cc1` [Compound 142, 4-(6,6-dimethyl-4-morpholino-8,9-dihydro-6H-[1,4]oxazino[3,4-e]purin-2-yl)-N,N-dimethylbenzamide], the IC50 was above 695 nM.
The same measure, in the same setting: to `CN(C(=O)OC(C)(C)C)c1ccc(-c2nc(N3CCOCC3)c3nc4n(c3n2)CCOC4(C)C)cc1` [Compound 143, tert-butyl 4-(6,6-dimethyl-4-morpholino-8,9-dihydro-6H-[1,4]oxazino[3,4-e]purin-2-yl)phenyl(methyl)carbamate] belongs above 695 nM; to `CC1(C)OCCn2c1nc1c(N3CCOCC3)nc(-c3cccc(CC#N)c3)nc12` [Compound 144, 2-(3-(6,6-dimethyl-4-morpholino-8,9-dihydro-6H-[1,4]oxazino[3,4-e]purin-2-yl)phenyl)acetonitrile], above 695 nM.
On the same count and under the same terms, to `CC1(C)OCCn2c1nc1c(N3CCOCC3)nc(-c3cccc(N4CCOCC4)c3)nc12` [Compound 145, 6,6-dimethyl-4-morpholino-2-(3-morpholinophenyl)-8,9-dihydro-6H-[1,4]oxazino[3,4-e]purine] belongs above 695 nM; to `CC1(C)OCCn2c1nc1c(N3CCOCC3)nc(-c3cccc(CN4CCOCC4)c3)nc12` [Compound 146, 6,6-dimethyl-4-morpholino-2-(3-(morpholinomethyl)phenyl)-8,9-dihydro-6H-[1,4]oxazino[3,4-e]purine], above 695 nM; to `CC1(C)OCCn2c1nc1c(N3CCOCC3)nc(-c3cccc(OCc4ccccc4)c3)nc12` [Compound 147, 2-(3-(benzyloxy)phenyl)-6,6-dimethyl-4-morpholino-8,9-dihydro-6H-[1,4]oxazino[3,4-e]purine], above 695 nM.
The same measure, in the same setting: to `CN1CCN(c2ccc(-c3nc(N4CCOCC4)c4nc5n(c4n3)CCOC5(C)C)cn2)CC1` [Compound 149, 6,6-dimethyl-2-(6-(4-methylpiperazin-1-yl)yridine-3-yl)-4-morpholino-8,9-dihydro-6H-[1,4]oxazino[3,4-e]purine] belongs above 695 nM; to `CC1(C)OCCn2c1nc1c(N3CCOCC3)nc(-c3ccc(C#N)cc3)nc12` [Compound 151, 4-(6,6-dimethyl-4-morpholino-8,9-dihydro-6H-[1,4]oxazino[3,4-e]purin-2-yl)benzonitrile], above 695 nM; to `CNC(=O)c1ccc(-c2nc(N3CCOCC3)c3nc4n(c3n2)CCOC4(C)C)cn1` [Compound 153, 5-(6,6-dimethyl-4-morpholino-8,9-dihydro-6H-[1,4]oxazino[3,4-e]purin-2-yl)-N-methylpicolinamide], above 695 nM.
Consider `CC1(C)OCCn2c1nc1c(N3CCOCC3)nc(-c3ccc(OCc4ccccc4)cc3)nc12` [Compound 154, 2-(4-(benzyloxy)phenyl)-6,6-dimethyl-4-morpholino-8,9-dihydro-6H-[1,4]oxazino[3,4-e]purine], for which the IC50 was above 695 nM.
In the case of `CN(C)c1cccc(-c2nc(N3CCOCC3)c3nc4n(c3n2)CCOC4(C)C)c1` [Compound 155, 3-(6,6-dimethyl-4-morpholino-8,9-dihydro-6H-[1,4]oxazino[3,4-e]purin-2-yl)-N,N-dimethylaniline], the IC50 is above 695 nM.
The same measure, in the same setting: to `CN1CCN(c2ccc(-c3nc(N4CCOCC4)c4nc5n(c4n3)CCOC5(C)C)cc2)CC1` [Compound 156, 6,6-dimethyl-2-(4-(4-methylpiperazin-1-yl)phenyl)-4-morpholino-8,9-dihydro-6H-[1,4]oxazino[3,4-e]purine] belongs above 695 nM; to `CC1(C)OCCn2c1nc1c(N3CCOCC3)nc(-c3ccc(N4CCCCC4)cc3)nc12` [Compound 157, 6,6-dimethyl-4-morpholino-2-(4-(piperidin-1-yl)phenyl)-8,9-dihydro-6H-[1,4]oxazino[3,4-e]purine], above 695 nM; to `CN1CCN(C(=O)c2ccc(-c3nc(N4CCOCC4)c4nc5n(c4n3)CCOC5(C)C)cc2)CC1` [Compound 161, (4-(6,6-dimethyl-4-morpholino-8,9-dihydro-6H-[1,4]oxazino[3,4-e]purin-2-yl)phenyl)(4-methylpiperazin-1-yl)methanone], above 695 nM.
The same measure, in the same setting: to `CC1(C)OCCn2c1nc1c(N3CCOCC3)nc(-c3cccc(C(=O)NC4CC4)c3)nc12` [Compound 162, N-cyclopropyl-3-(6,6-dimethyl-4-morpholino-8,9-dihydro-6H-[1,4]oxazino[3,4-e]purin-2-yl)benzamide] belongs above 695 nM.
